In patent publication US7223788B2, “Substituted N-aryl heterocycles, process for their preparation and their use as medicaments” (Sanofi-Aventis Deutschland GmbH, priority 2003, dated 2007):

Test system: female NMRI mice
Assay: Anorectic effect: reduction in cumulative milk consumption after oral administration (gavage) to fasted mice
Assay type: in vivo
Details: oral dose 30 mg/kg by gavage, after withdrawal of food for 17 hours, condensed milk consumption over 7 hours, compared with vehicle-treated control
Method: The anorectic effect was tested on female NMRI mice. After withdrawal of food for 17 hours, the test product was administered by gavage. The animals were housed singly with free access to drinking water and were offered condensed milk 30 minutes after administration of the product. The condensed milk consumption was determined every half hour for 7 hours, and the general wellbeing of the animals was observed. The measured milk consumption was compared with the vehicle-treated control animals.

SMILES	Reduction in the cumulative milk consumption as % of the control [%]
CC(=O)N(C)[C@@H]1CCN(c2ccc(NC(=O)Nc3ccc(Oc4ccccc4)cc3)cc2)C1 [Example 4, (R)-N-Methyl-N-(1-{4-[3-(4-phenoxyphenyl)ureido]phenyl}pyrrolidin-3-yl)acetamide]	50
CC(=O)N(C)C1CCN(c2ccc(NC(=O)N3CCC(c4ccc(Cl)cc4)CC3)cc2)C1 (centres unmarked) [Example 13, 4-(4-Chlorophenyl)piperidine-1-carboxylic acid {4-[3-(acetylmethylamino)-pyrrolidin-1-yl]phenyl}amide]	64
